We go through 16 compounds from PubChem BioAssay (NCI).

Structures are written as SMILES.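 Assay format: 96-well plates, 48-hour exposure. TGI: concentration producing complete growth inhibition.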

What all share (experiment): NCI anticancer screen, dose series, 48 h
For assay [1], the system named is NCI-H460 lung.
The test system of assay [2] is U251 CNS.
The subject of assay [3] is HOP-62 NSCLC.
Assay [4] has as its system UACC-257 melanoma.
Assay [5] concerns MDA-MB-231 breast.
Assay [6] has as its system MALME-3M melanoma.
In assay [7] the test system is UO-31 renal.
For assay [8], the system named is IGROV1 ovarian.
Assay [9] relates to HCT-116 colon.
For assay [10], the system named is BT-549 breast.

Regarding `O=C(CCc1ccccc1)On1c(-c2ccccc2)nc2ccccc2c1=S`, the TGI in assay [1] is more than 100 µM; in assay [2], more than 100 µM; in [3] it was 31.5 µM; in [4] it was more than 100 µM; in [5] it was more than 100 µM; in [6] it was 22.6 µM. The TGI was 39.3 µM in assay [7], more than 100 µM in assay [8], 8.81 µM in [9] and more than 100 µM in assay [10].

As to `O=[N+]([O-])c1ccc(O)c(/C=N/NC(=S)N2CCCCC2)c1`, the TGI was 38.3 µM in assay [1]; 90.3 µM in [2]; more than 100 µM in assay [3]; 14.1 µM in assay [4]; 52.2 µM in assay [5]; 10.3 µM in [6]. Moreover, the TGI in assay [7] is 4.58 µM; in assay [8], 8.76 µM; in [9], 40.3 µM; in assay [10], 63.4 µM.

`C[N+]1(CCN[N+]2(C)CCCCC2)CCc2ccccc2C1` (stereo not given): the TGI in [1], in [2], in assay [3], in assay [4], in assay [5] and in assay [6] was more than 100 µM throughout. The TGI in assay [7], in [8], in [9] and in assay [10] was more than 100 µM throughout.

`COc1ccccc1C[C@@H]1OC2(C=CC(=O)C=C2)O[C@H]1Cc1ccccc1OC`: the TGI was more than 50 µM in [1]; 19.4 µM in [2]; 15.4 µM in [3]; 16.1 µM in assay [4]; 38.6 µM in [5]; 21.3 µM in assay [6]. The TGI in assay [7] came to 12.7 µM; in assay [8] it was 13.6 µM; in [9] it was 2.32 µM; in [10], 11.5 µM.

On to `COc1ccc(/C=N/n2cnc3[nH]c(C)c(Cc4ccccc4)c3c2=N)cc1`, for which the TGI in assay [1], in assay [2], in assay [3], in [4], in [5] and in assay [6] was more than 100 µM throughout. Also, the TGI in assay [7], in assay [8], in assay [9] and in assay [10] was more than 100 µM throughout.

As to `S=C(Nc1ccc2cn[nH]c2c1)Nc1ccc2cn[nH]c2c1`, the TGI in [1], in [2], in assay [3], in [4], in [5] and in assay [6] was more than 100 µM each time. Also, the TGI in [7], in assay [8], in assay [9] and in assay [10] was more than 100 µM in each case.

`O=C1C(CN2CCOCC2)CCCC1CN1CCOCC1` (stereo not given): the TGI is 49 µM in [1]; 45 µM in assay [2]; more than 100 µM in assay [3]; 5.72 µM in [4]; 19.8 µM in assay [5]; 2.04 µM in assay [6]. Moreover, the TGI turned out to be 18.9 µM in [7], 17.3 µM in assay [8], 2.83 µM in [9] and 3.5 µM in [10].

For `C(=C\N1CCCCC1)/c1nnnn1-c1ccccc1`, the TGI is more than 100 µM in assay [1]; 80.3 µM in assay [2]; more than 100 µM in assay [3]; more than 100 µM in assay [4]; 61.6 µM in assay [5]; more than 100 µM in assay [6]. The TGI in assay [7] was more than 100 µM; in assay [8], 82.8 µM; in assay [9], more than 100 µM; in assay [10] it was more than 100 µM.

For the compound `COc1ccc(C(OCC2OC(n3ccc(NC(=O)c4ccccc4)nc3=O)CC2OP2(=S)SCCS2)(c2ccccc2)c2ccc(OC)cc2)cc1` (stereo not given), the TGI in [1] was more than 100 µM; in assay [2], 86.5 µM; in [3], 43.9 µM; in assay [4], more than 100 µM; in assay [5], more than 100 µM; in assay [6], 70.2 µM. Besides, the TGI in assay [7] is more than 100 µM; in assay [8], more than 100 µM; in assay [9], more than 100 µM; in assay [10], 53.6 µM.

Turning to `CCOC(=O)Oc1ccc2c(c1)c(=O)c1c(NCCN(CC)CC)ccc3nnn2c31`, the TGI in [1] is 9.44 µM; in assay [2] it was 17 µM; in assay [3], 7.22 µM; in assay [4] it was 21.1 µM; in assay [5], 17.6 µM; in [6], 22 µM. The TGI in assay [7] stood at 1.24 µM; in assay [8] it was 21.7 µM; in assay [9], 12.6 µM; in assay [10], 23.1 µM.

As for `NC(Cc1ccc(S(=O)(=O)O)cc1)C(=O)NC(Cc1ccc(S(=O)(=O)O)cc1)C(=O)O` (stereo not given), the TGI in assay [1], in [2], in assay [3], in assay [4], in assay [5] and in [6] was more than 100 µM throughout. Also, the TGI in assay [7], in [8], in assay [9] and in assay [10] was more than 100 µM each time.

As to `CC(=N\N)/C(C)=N/N=C(C)/C(C)=N/N=C(C)/C(C)=N/N`, the TGI in assay [1], in [2], in assay [3], in [4], in [5] and in assay [6] was more than 100 µM in each case. For the same compound, the TGI in [7], in assay [8], in assay [9] and in assay [10] was more than 100 µM in each case.

With `N#C[C@H](c1nc2ccccc2s1)c1nc2ccccc2nc1Cl`, the TGI in assay [1] is 47.3 µM; in assay [2], more than 100 µM; in [3], 77.1 µM; in [4], 43.3 µM; in [5] it was more than 100 µM; in [6] it was more than 100 µM. Moreover, the TGI in [7] was 52 µM; in assay [8], more than 100 µM; in [9] it was more than 100 µM; in [10], 21.4 µM.

Turning to `COc1cc(C2c3cc4c(cc3OC(NCCO)C2C)OCO4)cc(OC)c1OC` (stereo not given), the TGI was more than 100 µM in assay [1]; 12.5 µM in [2]; 9.03 µM in assay [3]; more than 100 µM in assay [4]; more than 100 µM in [5]; more than 100 µM in assay [6]. Besides, the TGI in [7] is more than 76.4 µM; in [8], more than 100 µM; in [9], more than 100 µM; in [10] it was more than 100 µM.

In the case of `CCc1nc2ccc(NCCN(C)C)c3c(=O)c4ccccc4n1c23`, the TGI in assay [1] was determined as 3.07 µM; in [2] it was 12.1 µM; in [3], 5.12 µM; in assay [4], 11.8 µM; in assay [5], 2.36 µM; in assay [6], 7.47 µM. Moreover, the TGI was 10 µM in assay [7], 4.82 µM in assay [8], 6.26 µM in assay [9] and 21.2 µM in assay [10].

`COC(OC)[C@@H]1OC[C@@H](O)[C@@H]1n1cnc2c(N)ncnc21`: the TGI in assay [1], in assay [2], in assay [3], in assay [4], in [5] and in assay [6] was more than 100 µM each time. For the same compound, the TGI in [7], in assay [8], in assay [9] and in assay [10] was more than 100 µM throughout.
